Test system: 454973-116-R2-J3-PDC spheroids, percent test/control viability
Assay: Anticancer human tumor 454973-116-R2-J3-PDC patient-derived pancreatic carcinoma cell line growth inhibition [CLK]
Conditions: spheroids with HUVEC and MSC; for IC50: curve of first compound; for viability, T/C: stronger effect = lower value
Source text: A high-throughput screen of multi-cell type tumor spheroids was designed to identify active combinations of […] and targeted small molecules. Complex spheroids include a stromal component modeled by human endothelial cells (HUVEC) and fibroblasts modeled by human mesenchymal stem cells (MSCs). The concentration ranges selected for each drug and investigational agent were based upon clinically achievable concentrations if the clinical Cmax of the agent was known.
Compounds. The drugs and investigational agents: cirtuvivint (SM08502; NSC835563), CC-671 (NSC850746), vemurafenib (NSC761431), tapotoclax (NSC804041), sotorasib (NSC818433), adagrasib (NSC831453), MRTX-1133 (NSC836407), BAY2416964 (NSC825713), copanlisib (NSC816437), inavolisib (NSC800729), abemaciclib (NSC768073), osimertinib (NSC779217), entinostat (NSC756642), eltanexor (KPT-8602, NSC794443), venetoclax (NSC766270), ceralasertib (NSC777638), bortezomib (NSC756655), olaparib (NSC753686), talazoparib (NSC767125), alisertib (NSC759677), peposertib (NSC802822), gemcitabine (NSC613327), 5-fluorouracil (NSC19893), SN-38 (NSC673596), oxaliplatin (NSC266046), paclitaxel (NSC125973), and doxorubicin (NSC123127), were obtained from the National Cancer Institute (NCI) Developmental Therapeutics Program Chemical Repository. The FDA-approved anticancer drug set is available from the Developmental Therapeutics Program at https://dtp.cancer.gov/organization/dscb/obtaining/available plates.htm. […] The stock solutions were prepared in dimethyl sulfoxide (DMSO, Sigma-Aldrich, St. Louis, MO, cat. D2650), except for the platinum complexes which were prepared in saline (Quality Biological, Gaithersburg, MD, cat. 114-055-101), at 800-fold the tested concentration and stored at -70 degrees C prior to their use. All drugs and investigational agents were tested over a range starting from a high concentration at or near the clinical Cmax and decreasing in half-log increments. If the clinical Cmax for an agent had not been determined, the highest concentration tested was 10 microM.
Cell Culture. All cells were maintained in an incubator at 37 degrees C and 5% CO2 with 95% humidity. The PDC lines were cultured according to standard operating procedures established by the NCI PDMR. Briefly, all PDCs were thawed and cultured in Matrigel-coated flasks prepared with a working solution of 1X Ham's F-12 nutrient mix, without supplementation (Invitrogen, Waltham, MA, cat. 11765054), 100 U/mL penicillin-streptomycin (Invitrogen, cat. 15140122), and 2.5% Matrigel (Corning Inc., Corning, NY, cat. 354248) for the first three passages. The 947758-054-R-J2-PDC line was cultured in 6B/Colon 1A media, which includes advanced DMEM/F-12 (Thermo Fisher Scientific, cat. 12634028), 10 mM HEPES (Thermo Fisher Scientific, cat. 15630080), 1X GlutaMAX supplement (Thermo Fisher Scientific, cat. 35050061), 0.1 mg/mL primocin (InvivoGen, cat. ant-pm-2), 10% defined fetal bovine serum, heat inactivated (HyClone Laboratories Inc., cat. SH30070.03HI), 1.25 mM N-Acetyl-L-cysteine (Sigma-Aldrich, cat. A9165), 10 mM nicotinamide (Sigma-Aldrich, cat. N0636), 1X B-27 supplement (Thermo Fisher Scientific, cat. 17504044), 1X N-2 supplement (Thermo Fisher Scientific, cat. 17502048), and 10 microM Y-27632 dihydrochloride (Tocris Bioscience, cat. 1254). The 876862-298-R-J1-PDC was cultured in 6E media, which includes all 6B/Colon 1A media components plus 50% L-WRN conditioned media (ATCC, cat. CRL-3276), 50 ng/mL recombinant human EGF recombinant protein (hEGF; Thermo Fisher Scientific, cat. PHG0311), 10 ng/mL recombinant human fibroblast growth factor 10 (hGFG-10; PeproTech, cat. 100-26), 1 ng/mL recombinant human fibroblast growth factor 2 (hFGF-2; PeproTech, cat. 100-18B), and 1 µM prostaglandin E2 (PGE2; Tocris, cat. 2296). The 227483-062-R1-J1-PDC line was cultured in Panc media, containing all 6E components except hFGF-2, with the addition of 500 nM SB-431542 (Selleckchem, cat. S1067) and 10 nM gastrin (Tocris, cat. 3006). […]
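Further: spheroids exposed to compounds for 7 days before readout.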

Q: What does the source list for Cn1ncnc1[C@H]1c2n[nH]c(=O)c3cc(F)cc(c23)N[C@@H]1c1ccc(F)cc1 + CNC(=O)c1ccc(Nc2nc(OC3CCCC3)c3c(-c4ccc5nc(C)oc5c4)c[nH]c3n2)c(OC)c1?
A: IC50 (second compound 0.0316 µM): > 100 nM; IC50 (second compound 0.1 µM): > 100 nM; IC50 (second compound 0.316 µM): < 0.316 nM; IC50 (second compound 1 µM): < 0.316 nM; IC50 (second compound 3.16 µM): < 0.316 nM; IC50 (second compound 10 µM): < 0.316 nM; viability, T/C (second compound 0.0316 µM, first compound 0.000316 µM): 110%; viability, T/C (second compound 0.0316 µM, first compound 0.001 µM): 114%; viability, T/C (second compound 0.0316 µM, first compound 0.00316 µM): 110%; viability, T/C (second compound 0.0316 µM, first compound 0.01 µM): 119%; viability, T/C (second compound 0.0316 µM, first compound 0.0316 µM): 105%; viability, T/C (second compound 0.0316 µM, first compound 0.1 µM): 86.2%; viability, T/C (second compound 0.1 µM, first compound 0.000316 µM): 113%; viability, T/C (second compound 0.1 µM, first compound 0.001 µM): 104%; viability, T/C (second compound 0.1 µM, first compound 0.00316 µM): 104%; viability, T/C (second compound 0.1 µM, first compound 0.01 µM): 106%; viability, T/C (second compound 0.1 µM, first compound 0.0316 µM): 104%; viability, T/C (second compound 0.1 µM, first compound 0.1 µM): 86.4%; viability, T/C (second compound 0.316 µM, first compound 0.000316 µM): 43.1%; viability, T/C (second compound 0.316 µM, first compound 0.001 µM): 51.2%; viability, T/C (second compound 0.316 µM, first compound 0.00316 µM): 50.8%; viability, T/C (second compound 0.316 µM, first compound 0.01 µM): 52.2%; viability, T/C (second compound 0.316 µM, first compound 0.0316 µM): 52.2%; viability, T/C (second compound 0.316 µM, first compound 0.1 µM): 48.1%; viability, T/C (second compound 1 µM, first compound 0.000316 µM): 33.1%; viability, T/C (second compound 1 µM, first compound 0.001 µM): 31.5%; viability, T/C (second compound 1 µM, first compound 0.00316 µM): 27.8%; viability, T/C (second compound 1 µM, first compound 0.01 µM): 36.4%; viability, T/C (second compound 1 µM, first compound 0.0316 µM): 31.1%; viability, T/C (second compound 1 µM, first compound 0.1 µM): 23.5%; viability, T/C (second compound 3.16 µM, first compound 0.000316 µM): 29.2%; viability, T/C (second compound 3.16 µM, first compound 0.001 µM): 26.7%; viability, T/C (second compound 3.16 µM, first compound 0.00316 µM): 29%; viability, T/C (second compound 3.16 µM, first compound 0.01 µM): 25.7%; viability, T/C (second compound 3.16 µM, first compound 0.0316 µM): 23.9%; viability, T/C (second compound 3.16 µM, first compound 0.1 µM): 21.4%; viability, T/C (second compound 10 µM, first compound 0.000316 µM): 25.5%; viability, T/C (second compound 10 µM, first compound 0.001 µM): 27.6%; viability, T/C (second compound 10 µM, first compound 0.00316 µM): 25.8%; viability, T/C (second compound 10 µM, first compound 0.01 µM): 21.7%; viability, T/C (second compound 10 µM, first compound 0.0316 µM): 24.5%; viability, T/C (second compound 10 µM, first compound 0.1 µM): 19.6%

Source: PubChem BioAssay AID2060618 (Molecular Pharmacology Branch, DTP, NCI, 2025)
